Results: ChEMBL document CHEMBL1201862, “PubChem BioAssay data set” (2004)
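Test compounds were applied to cells in 96-well plates for 48 hours at 5 doses. Abbreviation: GI50, concentration required for 50% inhibition of growth.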 Calls of active or inactive are those of the source. No stated cut-off is given here; in the data, active = GI50 up to about 1.1 µM and inactive = higher.

Assays:
Assay in all cases: NCI tumour cell line growth inhibition, 48 h
K562 = system: K562
HOP-92 = system: HOP-92
ACHN = system: ACHN
SK-OV-3 = system: SK-OV-3
HCC 2998 = system: HCC 2998
NCI/ADR-RES = system: NCI/ADR-RES
SNB-19 = system: SNB-19
RXF 393 = system: RXF 393
786-0 = system: 786-0
RPMI-8226 = system: RPMI-8226
SR = system: SR
SF-539 = system: SF-539
UACC-62 = system: UACC-62
SF-295 = system: SF-295
OVCAR-5 = system: OVCAR-5
SK-MEL-5 = system: SK-MEL-5
EKVX = system: EKVX
HL-60 = system: HL-60
OVCAR-4 = system: OVCAR-4
SNB-75 = system: SNB-75

Measured: GI50

[O-][n+]1onc(-c2ccccc2)c1-c1no[n+]([O-])c1-c1c(-c2ccccc2)no[n+]1[O-]
inactive: K562 2.51 µM | HOP-92 10.6 µM | ACHN 4.81 µM | SK-OV-3 43.8 µM | HCC 2998 74.1 µM | NCI/ADR-RES 3.98 µM | SNB-19 27 µM | RXF 393 3.35 µM | 786-0 8.93 µM | RPMI-8226 3.03 µM | SR 2.7 µM | SF-539 21 µM | UACC-62 12.6 µM | SF-295 24.8 µM | OVCAR-5 18.6 µM | SK-MEL-5 14.8 µM | EKVX 37.2 µM | HL-60 2.43 µM | OVCAR-4 2.94 µM | SNB-75 2.52 µM

CCC(=O)Nc1ccc(NS(=O)(=O)c2ccc(Cl)cc2)cc1
inactive: K562 29.9 µM | HOP-92 > 100 µM | ACHN > 100 µM | SK-OV-3 > 100 µM | HCC 2998 > 100 µM | NCI/ADR-RES > 100 µM | SNB-19 > 100 µM | RXF 393 > 100 µM | 786-0 > 100 µM | RPMI-8226 17.7 µM | SR 89.3 µM | SF-539 > 100 µM | UACC-62 99.3 µM | SF-295 45.4 µM | OVCAR-5 > 100 µM | SK-MEL-5 47.6 µM | EKVX 39.8 µM | HL-60 28.2 µM | OVCAR-4 53.6 µM | SNB-75 > 100 µM

Cc1ccc(Nc2nc3ccccc3nc2NS(=O)(=O)c2ccc(N)cc2)cc1
inactive: K562 31.5 µM | HOP-92 95.9 µM | ACHN 38.5 µM | SK-OV-3 > 100 µM | HCC 2998 3.64 µM | NCI/ADR-RES 61.8 µM | SNB-19 31.1 µM | RXF 393 30.8 µM | 786-0 82.4 µM | RPMI-8226 23.6 µM | SR 20.7 µM | SF-539 39.4 µM | UACC-62 36.1 µM | SF-295 46.7 µM | OVCAR-5 > 100 µM | SK-MEL-5 39.2 µM | EKVX > 100 µM | HL-60 21.9 µM | OVCAR-4 19.3 µM | SNB-75 84.9 µM
